According to PMC8528301 (PLoS ONE, 2021):
Several values for one entry are separate records, joined by “and”; a condition that tells them apart may be missing. Equal entries are not always repeated.

Tests used:
[1] = Dasatinib disposition in bile duct cannulated rats (literature); format: in vivo, rat
[2] = Plasma DEX concentrations on discontinuous oral DEX regimen in drinking water (Fig 3); format: in vivo, mouse; conditions: for concentration at 3.5 day / concentration at 10.5 day / concentration at 17.5 day: C57BL/6, mouse, oral, 8 mg/L, Dexamethasone conc; for observed systemic (plasma) concentrations of DEX, range: mice on the discontinuous DEX regimen
Description: (§1) 1 g/L of tetracycline (Sigma-Aldrich Inc, St. Louis, MO, USA) was added during both phases. Assuming that mice drink 5 mL of water per day, the dose they receive would be 1.6–2 mg/kg/day. […] At the end of in vivo procedures, all plasma samples were transferred from dry ice and stored at –80°C until analysis.
Sidak’s multiple comparison test (**p<0.01, ****p<0.0001) was used to further analyze the effect of vitamin D status at each time point.

[3] = Repeated discontinuous oral DEX PK study (another 60 mice); format: in vivo, mouse; conditions: for share of mice with measurable DEX / share of mice with DEX plasma concentration below LLOQ: Days 3.5+10.5; for share of mice with DEX plasma concentration below LLOQ: LLOQ = 5 nM; for concentration at 3.5 day / concentration at 10.5 day / concentration at 17.5 day: 8 mg/L, Average ± S.D. of quantifiable samples
Description: as §1

Cc1nc(Nc2ncc(C(=O)Nc3c(C)cccc3Cl)s2)cc(N2CCN(CCO)CC2)n1 [dasatinib]
percentage absorbed ([1]; bile duct cannulated rats, inferred from unchanged drug): 67% | share of absorbed drug that might undergo hepatic metabolism ([1]; rats): 60% | share of total drug that might undergo hepatic metabolism ([1]; rats): at least 40%

C[C@@H]1C[C@H]2[C@@H]3CCC4=CC(=O)C=C[C@]4(C)[C@@]3(F)[C@@H](O)C[C@]2(C)[C@@]1(O)C(=O)CO [DEX, dexamethasone]
estimated Cgut (gut concentration) ([2]; discontinuous DEX in drinking water, assuming mice drink 200–400 μl/hr): 7 to 10 µM and 7.6 to 10.1 µM | concentration at 3.5 day ([2]; female, plasma, avg, VD3 deficient, D3.5, n=5): 78 nM | concentration at 10.5 day ([2]; female, plasma, avg, VD3 deficient, D10.5, n=4): 63 nM | concentration at 17.5 day ([2]; female, plasma, avg, VD3 deficient, D17.5, n=4): 58.5 nM | concentration at 3.5 day ([2]; female, plasma, avg, VD3 sufficient, D3.5, n=5): 99.3 nM | concentration at 10.5 day ([2]; female, plasma, avg, VD3 sufficient, D10.5, n=4): 52.7 nM | concentration at 17.5 day ([2]; female, plasma, avg, VD3 sufficient, D17.5, n=5): 38.7 nM | concentration at 10.5 day ([2]; female, plasma, individual mouse, VD3 deficient (GCD), D10.5): 58.6 nM | concentration at 3.5 day ([2]; female, plasma, individual mouse, VD3 sufficient (MRE), D3.5): 95.6 nM | concentration at 10.5 day ([2]; female, plasma, individual mouse, VD3 sufficient (MRE), D10.5): 49.9 nM | concentration at 3.5 day ([2]; male, plasma, avg, plasma, male, VD3 deficient, day 3.5, n=8): 31.7 nM | concentration at 10.5 day ([2]; male, plasma, avg, plasma, male, VD3 deficient, day 10.5, n=13): 25.3 nM | concentration at 17.5 day ([2]; male, plasma, avg, plasma, male, VD3 deficient, day 17.5, n=13): 13.1 nM | concentration at 3.5 day ([2]; male, plasma, avg, plasma, male, VD3 sufficient, day 3.5, n=11): 12.4 nM | concentration at 10.5 day ([2]; male, plasma, avg, plasma, male, VD3 sufficient, day 10.5, n=11): 18 nM | concentration at 17.5 day ([2]; male, plasma, avg, plasma, male, VD3 sufficient, day 17.5, n=11): 13.3 nM | observed systemic (plasma) concentrations of DEX, range [2]: 2.6 to 201.5 nM | observed systemic (plasma) concentrations of DEX, range ([2]; listed as Dexamethasone): 2 to 200 nM | Dexamethasone conc, individual mouse ([2]; plasma, female, VD3 deficient (GCD), D3.5): 88.42 nM and 34.10 nM and 126.21 nM and 104.66 nM and 36.85 nM | Dexamethasone conc, individual mouse ([2]; plasma, female, VD3 deficient (GCD), D10.5): 55.47 nM and 71.15 nM and 66.95 nM | Dexamethasone conc, individual mouse ([2]; plasma, female, VD3 deficient (GCD), D17.5): 84.72 nM and 78.40 nM and 26.56 nM and 44.39 nM | Dexamethasone conc, individual mouse ([2]; plasma, female, VD3 sufficient (MRE), D3.5): 94.88 nM and 116.14 nM and 126.22 nM and 63.45 nM | Dexamethasone conc, individual mouse ([2]; plasma, female, VD3 sufficient (MRE), D10.5): 50.92 nM and 57.26 nM | Dexamethasone conc, individual mouse ([2]; plasma, female, VD3 sufficient (MRE), D17.5): 24.99 nM and 23.28 nM and 21.33 nM and 61.18 nM and 62.62 nM | Dexamethasone conc, individual mouse ([2]; plasma, male, VD3 deficient (GCD), 3.5 Days, discontinuous DEX in drinking water): 28.49 nM and 21.78 nM and 23.16 nM and 14.22 nM and 52.94 nM and 69.07 nM and 12.19 nM | Dexamethasone conc, individual mouse ([2]; plasma, male, VD3 deficient (GCD), 10.5 Days): 24.64 nM and 18.60 nM and 35.12 nM and 50.14 nM and 22.77 nM and 19.09 nM and 13.20 nM and 32.61 nM and 4.50 nM and 20.98 nM and 51.76 nM and 9.92 nM | Dexamethasone conc, individual mouse ([2]; plasma, male, VD3 deficient (GCD), 17.5 Days): 7.03 nM and 9.03 nM and 37.95 nM and 11.09 nM and 12.27 nM and 10.43 nM and 10.75 nM and 8.20 nM and 7.99 nM and 10.52 nM and 14.43 nM and 17.77 nM | Dexamethasone conc, avg ([2]; plasma, male, VD3 deficient, day 3.5, n=8): 31.70 nM | Dexamethasone conc, individual mouse ([2]; plasma, male, VD3 sufficient (MRE), 3.5 Days): 10.97 nM and 6.41 nM and 7.05 nM and BLQ (BLQ = BELOW the LLOQ, lower lmit of quantification = 5 nM dexamethasone) and 3.62 nM and 34.11 nM | Dexamethasone conc, individual mouse ([2]; plasma, male, VD3 sufficient (MRE), 10.5 Days): 56.24 nM and 2.95 nM and 2.63 nM and 10.01 nM and 12.14 nM and BLQ (BLQ = BELOW the LLOQ, lower lmit of quantification = 5 nM dexamethasone) and 34.37 nM and 7.89 nM | Dexamethasone conc, individual mouse ([2]; plasma, male, VD3 sufficient (MRE), 17.5 Days): 9.70 nM and 6.19 nM and 17.34 nM and 10.75 nM and 11.40 nM and 11.09 nM and 17.17 nM and 6.62 nM and 29.23 nM | share of mice with measurable DEX ([3]; female VD3 deficient): 100% | share of mice with DEX plasma concentration below LLOQ ([3]; female VD3 sufficient): 68% | concentration at 3.5 days ([3]; female, C57BL/6, mouse, plasma, oral, 8 mg/L in drinking water, DEX conc, individual mouse, repeated study, VD3 Suf, 3.5 Days): 52.8 nM | concentration at 10.5 days ([3]; female, C57BL/6, mouse, plasma, oral, 8 mg/L in drinking water, DEX conc, individual mouse, repeated study, VD3 Suf, 10.5 Days): 6.84 nM | concentration at 3.5 day ([3]; female, C57BL/6, mouse, plasma, oral, DEX conc, plasma, repeated study, VD3 Deficient, F, Day 3.5, n=15): 51.8 ± 86.8 nM | concentration at 10.5 day ([3]; female, C57BL/6, mouse, plasma, oral, DEX conc, plasma, repeated study, VD3 Deficient, F, Day 10.5, n=10): 116 ± 169 nM | concentration at 17.5 day ([3]; female, C57BL/6, mouse, plasma, oral, DEX conc, plasma, repeated study, VD3 Deficient, F, Day 17.5, n=5): 106 ± 65.5 nM | concentration at 3.5 day ([3]; female, C57BL/6, mouse, plasma, oral, DEX conc, plasma, repeated study, VD3 Sufficient, F, Day 3.5, n=5): 47.2 ± 9.15 nM | concentration at 10.5 day ([3]; female, C57BL/6, mouse, plasma, oral, DEX conc, plasma, repeated study, VD3 Sufficient, F, Day 10.5, n=3): 7.71 ± 1.12 nM | concentration at 17.5 day ([3]; female, C57BL/6, mouse, plasma, oral, DEX conc, plasma, repeated study, VD3 Sufficient, F, Day 17.5, n=5): 45.6 ± 27.2 nM | % BLQ ([3]; female, VD3 Def, 3.5 Days): 0% | % BLQ ([3]; female, VD3 Def, 10.5 Days): 0% | % BLQ ([3]; female, VD3 Def, 17.5 Days): 0% | % BLQ ([3]; female, VD3 Suf, 3.5 Days): 67% | % BLQ ([3]; female, VD3 Suf, 10.5 Days): 70% | % BLQ ([3]; female, VD3 Suf, 17.5 Days): 0% | share of mice with measurable DEX ([3]; male VD3 deficient): 96.5% | share of mice with DEX plasma concentration below LLOQ ([3]; male VD3 sufficient): 83% | concentration at 3.5 day ([3]; male, C57BL/6, mouse, plasma, oral, DEX conc, plasma, repeated study, VD3 Deficient, M, Day 3.5, n=13): 16 ± 16.6 nM | concentration at 10.5 day ([3]; male, C57BL/6, mouse, plasma, oral, DEX conc, plasma, repeated study, VD3 Deficient, M, Day 10.5, n=10): 48.7 ± 59.4 nM | concentration at 17.5 day ([3]; male, C57BL/6, mouse, plasma, oral, DEX conc, plasma, repeated study, VD3 Deficient, M, Day 17.5, n=5): 16.7 ± 7.19 nM | concentration at 3.5 day ([3]; male, C57BL/6, mouse, plasma, oral, DEX conc, plasma, repeated study, VD3 Sufficient, M, Day 3.5, n=5): 30.1 ± 14.4 nM | concentration at 17.5 day ([3]; male, C57BL/6, mouse, plasma, oral, DEX conc, plasma, repeated study, VD3 Sufficient, M, Day 17.5, n=5): 25.2 ± 8.2 nM | % BLQ ([3]; male, VD3 Def, 10.5 Days): 0% | % BLQ ([3]; male, VD3 Def, 17.5 Days): 0% | % BLQ ([3]; male, VD3 Suf, 10.5 Days): 100% | % BLQ ([3]; male, VD3 Suf, 17.5 Days): 0% | DEX conc, Average ± S.D. of quantifiable samples ([3]; plasma, repeated study, VD3 Deficient, F, Day 3.5, n=15): 51.832 nM | DEX conc, Average ± S.D. of quantifiable samples ([3]; plasma, repeated study, VD3 Deficient, F, Day 10.5, n=10): 116.245 nM | DEX conc, Average ± S.D. of quantifiable samples ([3]; plasma, repeated study, VD3 Deficient, F, Day 17.5, n=5): 105.912 nM | DEX conc, Average ± S.D. of quantifiable samples ([3]; plasma, repeated study, VD3 Deficient, M, Day 3.5, n=13): 15.9992 nM | DEX conc, Average ± S.D. of quantifiable samples ([3]; plasma, repeated study, VD3 Deficient, M, Day 10.5, n=10): 48.71 nM | DEX conc, Average ± S.D. of quantifiable samples ([3]; plasma, repeated study, VD3 Deficient, M, Day 17.5, n=5): 16.66 nM | DEX conc, Average ± S.D. of quantifiable samples ([3]; plasma, repeated study, VD3 Sufficient, F, Day 3.5, n=5): 47.222 nM | DEX conc, Average ± S.D. of quantifiable samples ([3]; plasma, repeated study, VD3 Sufficient, F, Day 10.5, n=3): 7.71 nM | DEX conc, Average ± S.D. of quantifiable samples ([3]; plasma, repeated study, VD3 Sufficient, F, Day 17.5, n=5): 45.604 nM | DEX conc, Average ± S.D. of quantifiable samples ([3]; plasma, repeated study, VD3 Sufficient, M, Day 3.5, n=5): 30.144 nM | DEX conc, Average ± S.D. of quantifiable samples ([3]; plasma, repeated study, VD3 Sufficient, M, Day 17.5, n=5): 25.19 nM | DEX conc, individual mouse ([3]; plasma, repeated study, female, VD3 Suf, 3.5 Days): BLQ (BLQ = BELOW the LLOQ, lower lmit of quantification = 5 nM dexamethasone) | DEX conc, individual mouse ([3]; plasma, repeated study, female, VD3 Suf, 10.5 Days): BLQ (BLQ = BELOW the LLOQ, lower lmit of quantification = 5 nM dexamethasone) | DEX conc, individual mouse ([3]; plasma, repeated study, male, VD3 Def, 3.5 Days): 9.88 nM and 17.04 nM and 5.32 nM and 11.52 nM and 38.23 nM and BLQ (BLQ = BELOW the LLOQ, lower lmit of quantification = 5 nM dexamethasone) and 6.47 nM and 59.55 nM and 8.86 nM and 29.02 nM and 4.39 nM and 6.91 nM | DEX conc, individual mouse ([3]; plasma, repeated study, male, VD3 Def, 10.5 Days): 19.46 nM and 37.99 nM and 211.48 nM and 27.59 nM and 28.34 nM and 9.45 nM and 27.41 nM | DEX conc, individual mouse ([3]; plasma, repeated study, male, VD3 Def, 17.5 Days): 12.05 nM and 27.36 nM | DEX conc, individual mouse ([3]; plasma, repeated study, male, VD3 Suf, 3.5 Days): BLQ (BLQ = BELOW the LLOQ, lower lmit of quantification = 5 nM dexamethasone) | DEX conc, individual mouse ([3]; plasma, repeated study, male, VD3 Suf, 10.5 Days): BLQ (BLQ = BELOW the LLOQ, lower lmit of quantification = 5 nM dexamethasone) | DEX conc, individual mouse ([3]; plasma, repeated study, male, VD3 Suf, 17.5 Days): 22.35 nM and 12.66 nM and 32.4 nM and 32.15 nM and 26.39 nM | % BLQ ([3]; share of plasma samples below LLOQ 5 nM, male, VD3 Suf, 3.5 Days): 67%
